# Molecular target: T1, human VR1 (Homo sapiens, UniProt Q8NER1)
# T1 construct: host or cells: cells that express human VR1 receptors (cell type not specified)
# Assay: Human VR1 antagonist assay (Ca2+ imaging assay using human VR1 highly expressing cells)
# Format: cell-based
# Details: intracellular Ca2+ imaging (fura-2)
# From the text: VR1 antagonistic activity can be determined by the Ca^2+ imaging assay using human VR1 highly expressing cells. The cells that highly express human VR1 receptors are obtainable from several different conventional methods. The one standard method is cloning from human Dorsal Root Ganglion (DRG) or kidney according to the methods such as described in the journal article; Nature, 389, pp 816-824, 1997. Alternatively VR1 receptors highly expressing human keratinocytes are also known and published in the journal article (Biochemical and Biophysical Research Communications, 291, pp 124-129, 2002). […] Furthermore, the method to up regulate human VR1 gene, which is usually a silent gene or don't produce detectable level of VR1 receptors, is also available to obtain propriety cells. Such genetic modification method was described in detail; Nat. Biotechnol., 19, pp 440-445, 2001.
# The cells that express human VR1 receptors were maintained in culture flask at 37° C. in an environment containing 5% CO2 until use in the assay. The intracellular Ca^2+ imaging assay to determine VR1 antagonistic activities were done by following procedures.
# The culture medium was removed from the flask and fura-2/AM fluorescent calcium indicator was added to the flask at a concentration of 5 μM in the medium. The flask was placed in CO2 incubator and incubated for 1 hour. Then the cells expressing the human VR1 receptors were detached from the flask follow by washing with phosphate buffer saline, PBS(−) and re-suspended in assay buffer. The 80 μl of aliquot of cell suspension (3.75×10^5 cells/ml) was added to the assay plate and the cells were spun down by centrifuge (950 rpm, 20° C., 3 minutes).
# Compounds of the examples were tested in the Human VR1 antagonist assay described above.
# The capsaicin-induced changes in the intracellular calcium concentration were monitored using FDSS 6000 (Hamamatsu Photonics, Japan), a fluorometric imaging system. The cell suspension in Krebs-Ringer HEPES (KRH) buffer (115 mM NaCl, 5.4 mM KCl, 1 mM MgSO4, 1.8 mM CaCl2, 11 mM D-Glucose, 25 mM HEPES, 0.96 mM Na2HPO4, pH 7.3) were pre-incubated with varying concentrations of the test compounds or KRH buffer (buffer control) for 15 minutes at room temperature under the dark condition. Then capsaicin solution, which gives 300 nM in assay mixture, was automatically added to the assay plate by the FDSS 6000.
# The Acid-induced changes in the intracellular calcium concentration were monitored using FDSS 6000 (Hamamatsu Photonics, Japan), a fluorometric imaging system. The cell suspension in resting buffer (HBSS supplemented with 10 mM HEPES, pH 7.4) were pre-incubated with varying concentrations of the test compounds or resting buffer (buffer control) for 15 minutes at room temperature under the dark condition. The cells were automatically added the stimulating solution (HBSS supplemented with MES, final assay buffer pH5.8) by the FDSS 6000.
# The monitoring of the changes in the fluorescence signals (λex=340 nm/380 nm, λem=510-520 nm) was initiated at 1 minute prior to the addition of capsaicin solution or acidic buffer and continued for 5 minute.
# T1 sequence (Q8NER1 whole entry): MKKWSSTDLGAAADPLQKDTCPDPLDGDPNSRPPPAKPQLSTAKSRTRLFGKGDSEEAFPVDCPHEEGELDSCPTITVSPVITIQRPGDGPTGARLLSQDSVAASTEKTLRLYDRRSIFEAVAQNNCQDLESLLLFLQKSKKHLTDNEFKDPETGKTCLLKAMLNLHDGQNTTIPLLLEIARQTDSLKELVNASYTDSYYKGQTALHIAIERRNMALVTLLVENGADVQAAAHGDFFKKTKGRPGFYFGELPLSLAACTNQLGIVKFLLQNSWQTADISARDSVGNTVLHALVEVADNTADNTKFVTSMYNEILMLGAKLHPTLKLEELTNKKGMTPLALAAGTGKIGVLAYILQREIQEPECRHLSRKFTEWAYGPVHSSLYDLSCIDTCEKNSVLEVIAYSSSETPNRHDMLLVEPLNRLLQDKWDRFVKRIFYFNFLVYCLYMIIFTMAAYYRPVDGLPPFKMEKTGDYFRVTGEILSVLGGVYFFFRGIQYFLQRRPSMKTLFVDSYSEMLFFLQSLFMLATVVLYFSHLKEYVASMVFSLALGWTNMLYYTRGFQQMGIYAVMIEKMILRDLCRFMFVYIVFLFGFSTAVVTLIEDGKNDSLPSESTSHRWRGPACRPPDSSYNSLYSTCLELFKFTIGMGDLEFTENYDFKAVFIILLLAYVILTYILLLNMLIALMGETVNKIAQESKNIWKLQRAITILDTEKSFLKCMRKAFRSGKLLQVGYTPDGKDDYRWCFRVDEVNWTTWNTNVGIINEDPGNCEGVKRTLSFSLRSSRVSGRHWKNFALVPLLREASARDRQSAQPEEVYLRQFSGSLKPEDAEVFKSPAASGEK
row,Compound,IC50 [nM]
1,"Cc1c([C@@H](C)NC(=O)c2ccc3cc(C(C)(O)C(F)(F)F)ccc3c2)cnn1C (mixture of isomers) [Example 31, N-[(1R)-1-(1,5-dimethyl-1H-pyrazol-4-yl)ethyl]-6-(2,2,2-trifluoro-1-hydroxy-1-methylethyl)-2-naphthamide]",177
2,"CCC(NC(=O)c1ccc2nc(C(C)(C)C(F)(F)F)ccc2c1)c1cnn(C)c1C (racemic) [Example 7, N-[1-(1,5-dimethyl-1H-pyrazol-4-yl)propyl]-2-(2,2,2-trifluoro-1,1-dimethylethyl)quinoline-6-carboxamide]",145
3,"CC[C@@H](NC(=O)c1ccc2nc(C(C)(C)C(F)(F)F)ccc2c1)c1cnn(C)c1C (single isomer, unassigned) [Example 8]",66
4,"Cc1c([C@@H](C)NC(=O)c2ccc3cc([C@@](C)(O)C(F)(F)F)ccc3c2)cnn1C (single isomer, unassigned) [Example 32]",52.7
5,"Cc1c(CNC(=O)c2ccc3nc(C(C)(C)C(F)(F)F)ccc3c2)cnn1C [Example 2, N-[(1,5-dimethyl-1H-pyrazol-4-yl)methyl]-2-(2,2,2-trifluoro-1,1-dimethylethyl)quinoline-6-carboxamide]",261
6,"C[C@@H](NC(=O)c1ccc2nc(C(C)(C)C(F)(F)F)ccc2c1)c1cnn(C)c1C#N [Example 3, (R)-N-(1-(5-cyano-1-methyl-1H-pyrazol-4-yl)ethyl)-2-(2,2,2-trifluoro-1,1-dimethylethyl)quinoline-6-carboxamide]",322
7,"C[C@@H](NC(=O)c1ccc2nc(C(C)(C)C(F)(F)F)ccc2c1)c1cnn(C)c1CO [Example 4, (R)-N-(1-(5-(hydroxymethyl)-1-methyl-1H-pyrazol-4-yl)ethyl)-2-(2,2,2-trifluoro-1,1-dimethylethyl)quinoline-6-carboxamide]",607
8,"Cc1c(C(C)NC(=O)c2ccc3nc(C(C)(C)C(F)(F)F)ccc3c2)cnn1CC(F)(F)F (centres unmarked) [Example 5, N-(1-(5-methyl-1-(2,2,2-trifluoroethyl)-1H-pyrazol-4-yl)ethyl)-2-(2,2,2-trifluoro-1,1-dimethylethyl)quinoline-6-carboxamide]",44.1
9,"Cc1[nH]ncc1C(C)NC(=O)c1ccc2nc(C(C)(C)C(F)(F)F)ccc2c1 (centres unmarked) [Example 9, N-[1-(5-methyl-1H-pyrazol-4-yl)ethyl]-2-(2,2,2-trifluoro-1,1-dimethylethyl)quinoline-6-carboxamide]",323
10,"Cc1c(C(C)NC(=O)c2ccc3nc(C(C)(C)C(F)(F)F)ccc3c2)cnn1CCO (centres unmarked) [Example 11, N-(1-(1-(2-hydroxyethyl)-5-methyl-1H-pyrazol-4-yl)ethyl)-2-(2,2,2-trifluoro-1,1-dimethylethyl)quinoline-6-carboxamide]",16.4
11,"Cc1c(C(C)NC(=O)c2ccc3nc(C(C)(C)C(F)(F)F)ccc3c2)cnn1CC(C)(C)O (centres unmarked) [Example 12, N-(1-(1-(2-hydroxy-2-methylpropyl)-5-methyl-1H-pyrazol-4-yl)ethyl)-2-(2,2,2-trifluoro-1,1-dimethylethyl)quinoline-6-carboxamide]",79.9
12,"Cc1c([C@@H](C)NC(=O)c2ccc3nc(C4(C)CC4)ccc3c2)cnn1C [Example 13, N-[(1R)-1-(1,5-dimethyl-1H-pyrazol-4-yl)ethyl]-2-(1-methylcyclopropyl) quinoline-6-carboxamide]",313
13,Cc1c([C@@H](C)NC(=O)c2ccc3nc(C(C)(O)C(F)(F)F)ccc3c2)cnn1C (some centres unmarked) [Example 14],63.7
14,"CCn1ncc(CNC(=O)c2ccc3nc(C(C)(C)C(F)(F)F)ccc3c2)c1C [Example 15, N-[(1-ethyl-5-methyl-1H-pyrazol-4-yl)methyl]-2-(2,2,2-trifluoro-1,1-dimethylethyl)quinoline-6-carboxamide]",71.7
15,"CCn1ncc(C(C)NC(=O)c2ccc3nc(C(C)(C)C(F)(F)F)ccc3c2)c1C (centres unmarked) [Example 16, N-[1-(1-ethyl-5-methyl-1H-pyrazol-4-yl)ethyl]-2-(2,2,2-trifluoro-1,1-dimethylethyl)quinoline-6-carboxamide]",28.9
16,Cc1c(C(C)NC(=O)c2ccc3nc(C(C)(C)C(F)(F)F)ccc3c2)cnn1C1CCC1 (centres unmarked) [Example 17],124

row,Compound,IC50 [nM]
1,"C[C@@H](NC(=O)c1ccc2nc(C(C)(C)C(F)(F)F)ccc2c1)c1cnn(C)c1Cl [Example 18a, (R)-N-(1-(5-chloro-1-methyl-1H-pyrazol-4-yl)ethyl)-2-(2,2,2-trifluoro-1,1-dimethylethyl)quinoline-6-carboxamide]",3
2,"Cc1c([C@@H](C)NC(=O)c2ccc3nc(C(F)(F)F)ccc3c2)cnn1C [Example 23, (R)-N-(1-(1,5-dimethyl-1H-pyrazol-4-yl)ethyl)-2-(trifluoromethyl) quinoline-6-carboxamide]",121
3,"Cc1c(C(C)NC(=O)c2ccc3cc(C(C)(C)C)ccc3c2)cnn1C (centres unmarked) [Example 24, 6-tert-butyl-N-[1-(1,5-dimethyl-1H-pyrazol-4-yl)ethyl]-2-naphthamide]",23
4,"Cc1n[nH]c(C)c1CNC(=O)c1ccc2cc(C(C)(C)C)ccc2c1 [Example 25, 6-tert-butyl-N-[(3,5-dimethyl-1H-pyrazol-4-yl)methyl]-2-naphthamide]",118
5,"Cc1nn(C)cc1CNC(=O)c1ccc2cc(C(C)(C)C)ccc2c1 [Example 26, 6-tert-butyl-N-[(1,3-dimethyl-1H-pyrazol-4-yl)methyl]-2-naphthamide]",443
6,"Cc1c(CNC(=O)c2ccc3cc(C(C)(C)C)ccc3c2)cnn1C [Example 27, 6-tert-butyl-N-[(1,5-dimethyl-1H-pyrazol-4-yl)methyl]-2-naphthamide]",73
7,"CCC(NC(=O)c1ccc2cc(C(C)(C)C)ccc2c1)c1cnn(C)c1C (centres unmarked) [Example 28, 6-tert-butyl-N-(1-(1,5-dimethyl-1H-pyrazol-4-yl)propyl)-2-naphthamide]",57.4
8,"Cc1c(C(C)NC(=O)c2ccc3cc(C(F)(F)F)ccc3c2)cnn1C (centres unmarked) [Example 29, N-(1-(1,5-dimethyl-1H-pyrazol-4-yl)ethyl)-6-(trifluoromethyl)-2-naphthamide]",189
9,"Cc1c([C@@H](C)NC(=O)c2ccc3cc(C4(C)CC4)ccc3c2)cnn1C [Example 30, N-[(1R)-1-(1,5-dimethyl-1H-pyrazol-4-yl)ethyl]-6-(1-methylcyclopropyl)-2-naphthamide]",20.1
10,"Cc1c([C@@H](C)NC(=O)c2ccc3cc([C@](C)(O)C(F)(F)F)ccc3c2)cnn1C [Example 32a, N-[(1R)-1-(1,5-dimethyl-1H-pyrazol-4-yl)ethyl]-6-[(1S)-2,2,2-trifluoro-1-hydroxy-1-methylethyl]-2-naphthamide]",3190
11,"COC(C)(c1ccc2cc(C(=O)NC(C)c3cnn(C)c3C)ccc2c1)C(F)(F)F (centres unmarked) [Example 33, N-[1-(1,5-dimethyl-1H-pyrazol-4-yl)ethyl]-6-(2,2,2-trifluoro-1-methoxy-1-methylethyl)-2-naphthamide]",139
12,"Cc1c(CNC(=O)c2ccc3cc(C(C)(C)C)ccc3n2)cnn1C [Example 34, 6-tert-butyl-N-[(1,5-dimethyl-1H-pyrazol-4-yl)methyl]quinoline-2-carboxamide]",254
13,"Cc1nn(C)c(C)c1CNC(=O)c1ccc2cc(C(C)(C)C)ccc2c1 [Example 35, 6-tert-butyl-N-((1,3,5-trimethyl-1H-pyrazol-4-yl)methyl)-2-naphthamide]",1870
14,Cn1cc(CNC(=O)c2ccc3cc(C(C)(C)C)ccc3c2)cn1 [Example 36],3480
15,"Cc1c(C(C)NC(=O)c2ccc3cc(C(C)(C)O)ccc3c2)cnn1C (centres unmarked) [Example 37, N-[1-(1,5-dimethyl-1H-pyrazol-4-yl)ethyl]-6-(1-hydroxy-1-methylethyl)-2-naphthamide]",1000
16,"Oc1cc2c(cc1O)CN(C(=S)NCCc1ccc(Cl)cc1)CCC2 [capsazepin, reference compound]",237 to 455

# From patent US7964732B2, “Substituted bicyclocarboxyamide compounds” (Pfizer Inc., priority 2006, dated 2011)
